# Experimental data as given in US11433019B2, “Ganoderma lucidum extract-preparing method using eco-friendly extraction technique, Ganoderma lucidum extract prepared thereby, and anti-aging cosmetic composition comprising same extract” (AMOREPACIFIC CORPORATION, priority 2017, dated 2022).
# Assays:
# collagenase = assay: Collagenase production/expression in human fibroblasts (antibody-based absorbance at 405 nm); format: cell-based; conditions: 5 μM, 24 hours, untreated group = 100
# Procedure: The inhibitory ability of Ganoderma lucidum extracts extracted with the aqueous cyclodextrin solution according to the present disclosure on collagenase production was measured in comparison with retinoic acid. Human fibroblasts were added at 5,000 cells/well in a 96-well microtiter plate containing Dulbecco's Modified Eagle's Media (DMEM) medium containing 2.5% fetal bovine serum and incubated in an incubator (5% CO2, 37° C.) until the growth reached 70 to 80%. Then, the Ganoderma lucidum extracts, which were extracted using the 1% β-CD aqueous cyclodextrin solution in combination with ultrasonic extraction, were treated with the cells at a concentration of 100 μg/ml for 24 hours, and then the cell culture solution was collected.
# Then, the degree of collagenase production in the thus-collected cell culture solution was measured using a commercially available collagenase measuring instrument (GE Healthcare Life Sciences). […]
# The absorbance of the yellowish 96-well plate was measured at 405 nm using an absorptiometer, and the expression level of collagenase was calculated by Calculation Equation 1 below. In particular, the reaction absorbance of the collected cell culture solution in the untreated group was taken as the absorbance of the control group. […]
# A: Absorbance of the test substance-treated cell group
# B: Absorbance of control group […]
# [1] = system: matrix metalloprotease-1 (MMP-1); assay: MMP-1 inhibitory effect: free MMP-1 in media of UV-irradiated HS68 fibroblasts (kit, Amersham RPN2610); format: cell-based; conditions: 5 μM, UV 30 mJ, treated twice for 48 hours, corrected with control without test substance
# Procedure: In order to confirm the inhibitory effect of Ganoderma lucidum extracts extracted with the aqueous cyclodextrin solution according to the present disclosure on matrix metalloprotease-1 (MMP-1) expression increased by ultraviolet rays, fibroblasts cells (HS68) were seeded at a concentration of 0.75*10^5 in each well of a 12 well plate and made to be a starvation state for 24 hours, then washed with phosphate buffered saline and irradiated with UV (30 mJ). Subsequently, as a positive control, 1, 10, and 50 ppm of Ganoderma lucidum extracts extracted with 5 μM of retinoic Acid (RA) and an aqueous cyclodextrin solution were treated twice for 48 hours, and the amount of free MMP-1 in the media was measured using a kit (Amersham, RPN2610).
smiles,measurement,setting,value
"CC1=C(/C=C/C(C)=C/C=C/C(C)=C/C(=O)O)C(C)(C)CCC1 [Retinoic acid, retinoic Acid]",Degree of Collagenase Expression (%),collagenase,75.0%
same,Extracellular MMP-1 (% of control),[1],66.2% of control
